The record followed here is patent US20220402917A1, “COMPOUND AS SMALL MOLECULE INHIBITOR PD-1/PD-L1 AND APPLICATION THEREOF” (MEDSHINE DISCOVERY INC., priority 2019, published 2022).

For experiment [1], the target named is T1, PD1/PD-L1 (Homo sapiens, UniProt Q9NZQ7). Briefly: NFAT activity test (TCR Activitor/PD-L1 CHO cells with PD-1/NFAT Reporter-Jurkat cells). It counts as cell-based. More on the design: host or cells: TCR Activitor/PD-L1 CHO cells; PD-1/NFAT Reporter-Jurkat cells. The settings on record: TCR Activitor/PD-L1 CHO cells + PD-1/NFAT Reporter-Jurkat cells, 5 hours, luciferase. In short, it runs like this:
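TCR activator/PD-L1 CHO cells were pretreated 30 min at 37 °C with compound (20 μM to 0.25 nM, 5-fold steps, 2% DMSO). PD-1/NFAT reporter Jurkat cells were then added for 5 h at 37 °C. NFAT-driven luciferase read by Bright-Glo luminescence, normalised to Min/Max, IC50 from 4-parameter fit.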
Target sequence in this assay (Q9NZQ7 19-290): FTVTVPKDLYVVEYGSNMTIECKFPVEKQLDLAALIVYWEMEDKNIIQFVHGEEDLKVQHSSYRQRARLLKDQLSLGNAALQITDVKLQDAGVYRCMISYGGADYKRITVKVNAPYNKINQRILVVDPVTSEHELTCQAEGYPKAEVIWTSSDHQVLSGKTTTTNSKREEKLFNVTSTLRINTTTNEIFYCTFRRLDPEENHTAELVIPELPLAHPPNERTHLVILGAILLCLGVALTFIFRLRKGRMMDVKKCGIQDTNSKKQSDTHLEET

Experiment [2] deals with T1, PD1/PD-L1. In words: PD-1/PD-L1 homogeneous time-resolved fluorescence (HTRF) binding experiment. More on the design: purchased BPS Biosciences. The settings on record: HTRF (TR-FRET), PD-L1-biotin, PD1-Eu. The source says:
Experimental Example 1: PD-1/PD-L1 Homogenouse Time-Resolved Fluorescence (HTRF) Binding Experiment
When the PD-1 molecule as the donor is very close to the PD-L1 molecule as the acceptor, the donor molecule will transfer the energy to the receptor molecule, which in turn causes the receptor molecule to emit fluorescence. The ability of small molecules to prevent the binding of PD-L1 to PD-1 can be tested by detecting the intensity of fluorescence. A homogeneous time-resolved fluorescence (HTRF) binding experiment is used to detect the ability of the compounds of the present disclosure to inhibit the binding of PD-1/PD-L1.
PD1/PD-L1 TR-FRET detection kit was purchased from BPS Biosciences. Nivo multi-label analyzer (PerkinElmer).
PD1-Eu, Dye-labeled acceptor, PD-L1-biotin and compounds to be tested were diluted with the buffer in the kit. The compounds to be tested were subjected to 5-fold dilution to eight concentration gradients with a row gun. That is, from 40 μM to 0.5 nM, the DMSO concentration was 4%, and a double-well experiment was set up. 5 μL of inhibitor with each concentration gradient were added to the microwell plate, and 5 μL buffer containing 4% DMSO and 5 μL PD-L1-biotin (PD-L1-biotin) (60 nM) were added into well with the maximum signal (Max) and the well with the minimum signal (Min), only 5 μL of buffer was added to the well with the minimum signal (Min), and the incubation was conducted at 25° C. for 20 minutes. After the incubation was completed, 5 μL of diluted PD1-Eu (10 nM) and […] were added to each well. The reaction system was placed at 25° C. for 90 minutes. The TR-FRET signal was read by a multi-label analyzer after the reaction was completed.
Using the equation (sample−Min)/(Max−Min)×100% to convert the raw data into inhibition rate, and the IC50 value can be obtained by curve fitting with four parameters (obtained from log(inhibitor) vs. response—Variable slope mode in GraphPad Prism). Table 1 provides the inhibitory activity of the compounds of the examples of the present disclosure on PD1/PD-L1 binding
Target sequence in this assay (Q9NZQ7 19-239 limits assumed): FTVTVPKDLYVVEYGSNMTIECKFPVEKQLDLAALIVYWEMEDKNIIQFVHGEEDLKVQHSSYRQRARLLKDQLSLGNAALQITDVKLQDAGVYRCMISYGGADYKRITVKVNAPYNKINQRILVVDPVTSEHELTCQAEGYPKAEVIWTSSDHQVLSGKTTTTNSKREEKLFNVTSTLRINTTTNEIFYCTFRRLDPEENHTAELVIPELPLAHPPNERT

Regarding `COc1nc(-c2cccc(-c3cccc(NC(=O)c4cc(C)c5c(n4)CN(CCO)CC5)c3Cl)c2Cl)cnc1CN1CC(O)C1` [Compound 21], at PD1/PD-L1 [1], the “Maximum effect (induction fold)” value is 3.96 induction fold. The IC50 on PD1/PD-L1 [1] (read-out: IC50, inhibitory activity on PD1/PD-L1 binding (NFAT activity test)) is 13.9 nM; at PD1/PD-L1 [2], 7.14 nM.
